Assays:
[1] = test system: P388 lymphocytic leukemia; conditions: P388 cells; cited from earlier work
[2] = test system: KB; conditions: KB cells; cited from earlier work
[3] = test system: HIV-1/MN; assay: Anti HIV activity, P24 antigen in infected PM-1 cells; type: cell-based; conditions: Concentration 1 μM; PM-1 cells infected with HIV-1/MN, 96 h; P24 antigen corrected by MTT
Procedure: Human CD4+T cell line PM-1 used in the assay was cultured in RPMI-1640 medium containing 10% Fetal bovine serum, 2 g/L sodium bicarbonate, 100,000 units/L Penicillin-G and 100 mg/L streptomycin. Healthy PM-1 cells were plated on the first day in a 96 well plate at […]. After 24 h HIV-1/MN was added to the culture and incubated for 2 h for infection. Cells were washed twice with PBS to remove the virus in the culture. Different concentrations of DRF compounds ranging from 10^−4 to 10^−8M were added to the culture and incubated for 96 h. The viability of cells was then assessed by standard MTT assay and the viral antigen P24 levels were estimated by ELSA method. Based on the MTT assay values the P 24 antigen values were corrected. All the samples were tested in triplicates and the average was used for calculations. AZT was used as standard compound for comparision.

[4] = test system: U251; assay: in vitro anti-cancer screen, Sulforhodamine B method; type: cell-based, human; conditions: CNS: U251; 48 h incubation; read-out: GROWTH INHIBITION (GI 50)
Procedure: (§1) Each test compound was screened against a battery of cell lines representing eight different types of cancers. In a typical procedure, 1×10^4 cells were seeded into each well of 96 well plate in 100 μL volume of RPMI 1640 medium containing antibiotics and 10% FCS.
(§2) The plates were incubated at 37° C. in presence of CO2. After 24 h, test compounds were evaluated at five 10 fold dilutions ranging from 100 to 0.01 μM. To each test well 100 μL of test compound solution was added and medium with vehicle was added to control wells and the plates were further incubated. After 48 h of incubation, plates were terminated by Sulforhodamine B method.
(§3) The optical density which is proportional to protein mass, is then-read by automated spectrophotometric plate reader at a wavelength of 515 nm.

[5] = test system: SKOV-3; assay: as above; type: cell-based, human; conditions: OVARIAN: SKOV-3; 48 h incubation; read-out: GROWTH INHIBITION (GI 50)
Procedure: as §1, §2, §3

[6] = test system: H522; assay: as above; type: cell-based, human; conditions: LUNG: H522; 48 h incubation; read-out: GROWTH INHIBITION (GI 50)
Procedure: as §1, §2, §3

[7] = test system: DU145; assay: as above; type: cell-based, human; conditions: PROSTATE: DU145; 48 h incubation; read-out: GROWTH INHIBITION (GI 50)
Procedure: as §1, §2, §3

[8] = test system: A498; assay: as above; type: cell-based, human; conditions: RENAL: A498; 48 h incubation; read-out: GROWTH INHIBITION (GI 50)
Procedure: as §1, §2, §3

[9] = test system: MCF-7/ADR; assay: as above; type: cell-based, human; conditions: BREAST: MCF-7/ADR; 48 h incubation; read-out: GROWTH INHIBITION (GI 50)
Procedure: as §1, §2, §3

[10] = test system: M14; assay: as above; type: cell-based, human; conditions: MELANOMA: M14; 48 h incubation; read-out: GROWTH INHIBITION (GI 50)
Procedure: as §1, §2, §3

[11] = test system: SW-620; assay: as above; type: cell-based, human; conditions: COLON: SW-620; 48 h incubation; read-out: GROWTH INHIBITION (GI 50)
Procedure: as §1, §2, §3

[12] = test system: Human lymphocytes; assay: Lymphocyte proliferation, tritiated thymidine incorporation; type: cell-based; conditions: Concentration 1 μM; human lymphocytes with Phytohemagglutitin A
Procedure: Human lymphocytes were isolated from whole blood by using Ficoll Hypaque Plus (Amersham). On day one, 1 million lymphocytes were seeded into each well of 96 well plate in 100 μL volume of RPMI 1640 medium containing 10% FCS and Phytohemagglutitin A at 1 μg/well concentration. Plates were incubated at 37° C. in CO2 incubator for 24 h. Test compounds at various concentrations were added to test wells and only medium with vehicle was added to control wells. After 48 h of incubation […] of tritiated thymidine was added to each well. After 24 h of thymidine addition the cells were harvested and the incorporated radioactivity was determined. Stimulation Index (SI) was calculated using the formula, [formula]
A^T=Average CPM of treated wells,
A^C=Average CPM of control wells.

[13] = test system: HIV-1(IIIB); conditions: cited from earlier work

Compound: C=C1CC[C@@H]2[C@](C)(CO)[C@H](O)CC[C@@]2(C)[C@@H]1C/C=C1/C(=O)OC[C@H]1O [Andrographolide]
- cytotoxic activity [1]: potent cytotoxic activity
- cytotoxic activity [2]: potent cytotoxic activity

Compound: Cc1cn([C@H]2C[C@H](N=[N+]=[N-])[C@@H](CO)O2)c(=O)[nH]c1=O [AZT, reference compound]
- Percentage Inhibition [3]: 72.47

Compound: C=C1CCC2C(C)(COC(C)=O)C(OC(C)=O)CCC2(C)C1CC(NCc1ccccc1)C1=CCOC1=O (centres unmarked) [Example 1, 3,19-Diacetyl-12-(N-benzylamino)-14-deoxy andrographolide]
- Percentage Inhibition [3]: 73.94
- GI50 [4]: 0.2 µM
- GI50 [5]: 0.3 µM
- GI50 [6]: 9 µM
- GI50 [7]: 7 µM
- GI50 [8]: 5 µM
- GI50 [9]: 8 µM
- GI50 [10]: 5 µM
- GI50 [11]: 4 µM
- Stimulation Index (SI) [12]: 123

Compound: dehydroandrographolide succinic acid monoester [DASM]
- minimal concentration inhibitory to HIV-1(IIIB) [13]: 1.6 to 3.1 µg/mL
